{"source": "patent US9751889B2", "about": "(CRYSTAL PHARMATECH INC., priority 2013, dated 2017)", "key": {"[1]": {"details": "cited from earlier work"}, "physchem": {"test": "physchem", "details": "for Solubility / solubility at 1 h / solubility at 4 h / solubility at 24 h: RT; for Solubility: listed as WO2013184572A1 Form A; for solubility at 1 h / solubility at 4 h / solubility at 24 h: thermodynamic from solid", "procedure": "2. Add 3 mL of bio-relevant medium into each vial.\n3. Cap the vials and keep all the suspension samples stirring at RT (room temperature) using a rolling incubator at a rate of 25 r/min.\n4. Sample at 1 h, 4 h and 24 h respectively. About 0.6 mL aliquot of the suspension is transferred per time from solubility vial into a centrifuge filtration tube (pore size of 0.45 μm).\n5. Centrifuge filtration tubes at a rate of 8500 rpm for 3 minutes at RT, collect 0.2 mL of supernatant for HPLC quantification determination and collect the rest of solution for pH measurement, and separate the solid for XRPD characterization."}, "[2]": {"details": "dish open, 180 days; for Chemical purity: HPLC; for Final form: XRPD", "procedure": "The chemical and physical stabilities of the samples were evaluated by high performance liquid chromatography (HPLC) and XRPD."}, "[3]": {"details": "DVS, 25° C.", "procedure": "Dynamic Vapor Sorption (DVS)\nDynamic Vapor Sorption (DVS) was measured via a SMS (Surface Measurement Systems) DVS Intrinsic. The relative humidity at 25° C. were calibrated against deliquescence point of LiCl, Mg(NO3)2 and KCl. Typical Parameters for DVS test are listed below."}}, "note": "Like-named read-outs stand apart in the source and are kept apart here.", "data": [{"smiles": "C=CC(=O)N1CCC[C@@H](n2nc(-c3ccc(Oc4ccccc4)cc3)c3c(N)ncnc32)C1", "note": "[Form A, 1-[(3R)-3-[4-amino-3-(4-phenoxyphenyl)-1H-pyrazolo [3,4-d]pyrimidin-1-yl]piperidin-1-yl]prop-2-en-1-one, reference compound]", "values": [{"measurement": "Solubility", "setting": "[1]; pH=8", "result": 13, "unit": "µg/mL"}, {"measurement": "Solubility", "setting": "physchem; FeSSIF, time point 1 h", "result": 100, "unit": "µg/mL"}, {"measurement": "Solubility", "setting": "physchem; FeSSIF, time point 4 h", "result": 110, "unit": "µg/mL"}, {"measurement": "Solubility", "setting": "physchem; FeSSIF, time point 24 h", "result": 130, "unit": "µg/mL"}, {"measurement": "Solubility", "setting": "physchem; SGF, time point 1 h", "result": 360, "unit": "µg/mL"}, {"measurement": "Solubility", "setting": "physchem; SGF, time point 4 h", "result": 390, "unit": "µg/mL"}, {"measurement": "Solubility", "setting": "physchem; SGF, time point 24 h", "result": 380, "unit": "µg/mL"}]}, {"smiles": "C=CC(=O)N1CCC[C@@H](n2nc(-c3ccc(Oc4ccccc4)cc3)c3c(N)ncnc32)C1", "note": "[Form B, 1-[(3R)-3-[4-amino-3-(4-phenoxyphenyl)-1H-pyrazolo [3,4-d]pyrimidin-1-yl]piperidin-1-yl]prop-2-en-1-one]", "values": [{"measurement": "Solubility", "setting": "[1]; pH=7.42", "result": 9.6, "unit": "µg/mL"}]}, {"smiles": "C=CC(=O)N1CCC[C@@H](n2nc(-c3ccc(Oc4ccccc4)cc3)c3c(N)ncnc32)C1", "note": "[Form I, 1-[(3R)-3-[4-amino-3-(4-phenoxyphenyl)-1H-pyrazolo [3,4-d]pyrimidin-1-yl]piperidin-1-yl]prop-2-en-1-one]", "values": [{"measurement": "Chemical purity", "setting": "[2]; 25° C./60% RH", "result": 98.98, "unit": "%"}, {"measurement": "Final form", "setting": "[2]; 25° C./60% RH", "result": "Form I"}, {"measurement": "Chemical purity", "setting": "[2]; 40° C./75% RH", "result": 98.98, "unit": "%"}, {"measurement": "Final form", "setting": "[2]; 40° C./75% RH", "result": "Form I"}, {"measurement": "Water uptake under 80% RH", "setting": "[3]; 80% RH", "result": 0.19, "unit": "%"}, {"measurement": "Water uptake under 80% RH", "setting": "[3]; 80% RH, listed as Ibrutinib Form I", "result": 0.19, "unit": "%"}, {"measurement": "Water uptake under 95% RH", "setting": "[3]; 95% RH", "result": 0.48, "unit": "%"}, {"measurement": "Hygroscopicity (European pharmacopoeia criteria)", "setting": "[3]; 80% RH", "result": "non-hygroscopic"}, {"measurement": "Solubility in comparison to crystalline Form A (WO2013184572A1)", "setting": "physchem; FeSSIF and SGF", "result": "higher solubility"}, {"measurement": "solubility at 1 h", "setting": "physchem; fed state simulated intestinal fluid (FeSSIF), fessif, time point 1 h", "result": 150, "unit": "µg/mL"}, {"measurement": "solubility at 4 h", "setting": "physchem; fed state simulated intestinal fluid (FeSSIF), fessif, time point 4 h", "result": 160, "unit": "µg/mL"}, {"measurement": "solubility at 24 h", "setting": "physchem; fed state simulated intestinal fluid (FeSSIF), fessif, time point 24 h", "result": 160, "unit": "µg/mL"}, {"measurement": "solubility at 1 h", "setting": "physchem; simulated gastric fluid (SGF), simulated gastric fluid, SGF, time point 1 h", "result": 500, "unit": "µg/mL"}, {"measurement": "solubility at 4 h", "setting": "physchem; simulated gastric fluid (SGF), simulated gastric fluid, SGF, time point 4 h", "result": 500, "unit": "µg/mL"}, {"measurement": "solubility at 24 h", "setting": "physchem; simulated gastric fluid (SGF), simulated gastric fluid, SGF, time point 24 h", "result": 480, "unit": "µg/mL"}]}]}
